# Patent US20060211887A1, “Phosphate salts of 6-dimethylaminomethyl-1-(3-methoxyphenyl)-1,3-dihydroxy-cyclohexane compounds” (priority 2005, published 2006)
# Where a name gives a salt, the structure may show the parent alone.
# Legend:
# [1] = DVS (dynamic vapor sorption) experiment on the amorphous phosphate salt; format: physicochemical
# Description: The amorphous phosphate salt of I crystallized during a DVS (dynamic vapor sorption) experiment at a relative atmospheric humidity of 45% r.h.
# [2] = Storage of the amorphous phosphate salt at 75% r.h.; format: physicochemical; details: crystallized after 8 days
# Description: The amorphous phosphate salt crystallized after 8 days on storage at a relative atmospheric humidity of 75% r.h. and formed form A.
SMILES,Stability of the hydrate formed during the desorption ([1]; desorption),Form formed on storage [2],Relative atmospheric humidity at which the amorphous salt crystallized [1]
"COc1cccc([C@@]2(O)C[C@H](O)CC[C@@H]2CN(C)C)c1 (racemic) [form A, (1RS,3RS,6RS)-6-dimethylaminomethyl-1-(3-methoxyphenyl)-cyclohexane-1,3-diol]",remained stable during the desorption,–,–
"COc1cccc([C@@]2(O)C[C@H](O)CC[C@@H]2CN(C)C)c1 (racemic) [amorphous phosphate salt of I, (1RS,3RS,6RS)-6-dimethylaminomethyl-1-(3-methoxyphenyl)-cyclohexane-1,3-diol]",–,form A,45 % r.h.
